# Assays:
# [1] = tested on: MDA-MB-231 cells; parameters: method as in Patel et al. (2004); conditions: inhibition of cell proliferation by 50%; ref Patel et al. (2004); read-out: Cellular IC50, MDA-MB-231; cited from earlier work
# [2] = tested on: cyclin D1; test: Western blotting for cyclin D1 in MCF-7 cells; assay type: cell-based, human; conditions: 6 days (4HPR 4 days)
# Method: At the end of the treatment, cells were scrapped and collected by washing with ice-cold PBS in a centrifuge tube. Cells were centrifuged at 2500 r.p.m. for 10 min, the pellet was again washed with ice-cold PBS and centrifuged. The cell pellet was then suspended in chilled cell lysis buffer (0.1 M Tris–HCl, 0.5% Triton X-100, protease inhibitor cocktail) and sonicated on ice for 10–15 s. The homogenate was kept on ice for 30 min and then centrifuged at 13 000 r.p.m. for 30 min. The supernatant was used as cell lysate. The cell lysates were stored at −80°C. Protein concentration of the cell lysates was determined using Bio-Rad protein assay reagents.
# Protein lysates from MCF-7 and T47D cells were subjected to sodium dodecyl sulphate–polyacrylamide gel electrophoresis (SDS–PAGE) and immunoblotted for different proteins. […] Immunoreactive bands were visualised using the enhanced chemiluminescence detection reagents and analysis system (Amersham Bioscences) according to the manufacturer's instructions and quantified by densitometry using ImageQuant software version 5.
# Figure 5 Western blotting of whole-cell lysates of treated MCF-7 and T47D cells for the expression of Cyclin D1. […] Numbers below the blot show fold decrease in expression of the protein as analysed by ImageQuant densitometry analysis. […]
# [3] = tested on: T47D cells; test: Cell cycle analysis by flow cytometry (PI), T47D; assay type: cell-based, human; conditions: 5 μM, 6 days (4-HPR 4 days)
# Method: MCF-7 and T47D cells were plated in T-25 flasks and allowed to adhere for about 18 h. The cells were then synchronised by growing them in low-serum OPTI-MEM I medium for 2 days. […] After 6-day treatment, the cells were trypsinised, washed twice with PBS, centrifuged at 2500 r.p.m. to obtain a cell pellet. The cells (about 1–2 × 10^6) were fixed with 3 ml of 70% ethanol (by adding drop-wise and taking care that the cells are not clumped together). Cells were kept at −20°C until further analysis (at least overnight). Next, cells (∼1–2 × 10^6) were stained with 1 ml of propidium iodide (PI) (50 μg ml^−1)/RNase (100 μg ml^−1) solution and after about half an hour the fluorescence of stained nuclei (15 000 events) was analysed by flow cytometry (Becton Dickinson FACScan Instrument and quantification by Modfit LT version 3.1 software) with excitation wavelength of 488 nm. The percentage of G1, S, G2/M and sub-G1 (apoptotic cells) in the population of treated and untreated cells were determined.
# [4] = tested on: MCF-7 cells; parameters: method as in Patel et al. (2004); conditions: inhibition of cell proliferation by 50%; ref Patel et al. (2004); read-out: Cellular IC50, MCF-7; cited from earlier work
# [5] = tested on: MCF-7 cells; test: TUNEL apoptosis assay, MCF-7; assay type: cell-based, human; conditions: 5 μM; 6 days; control about 1.5%
# Description: (§1) The cells were rinsed with PBS and then the stained-labelled apoptotic cells were mounted using DAPI (diamidino-2-phenylindole 2HCl)-glycerol and visualised with a fluorescent microscope using two filters (1) for TUNEL stained cells, and (2) for DAPI stained cells, which represents all the cells (nuclei). Fluorescent microscope model was Nikon, Eclipse E400 and the software was SPOT advanced version 3.5.5 by Diagnostic Instruments Inc. (Sterling Heights, MI, USA).
# (§2) Figure 6 Graphs showing apoptosis induced in (A) MCF-7 and (B) T47D cells as determined by TUNEL. […] TUNEL-stained apoptotic cells were counted against the DAPI stained cells to obtain percentage apoptosis. The experiments were repeated thrice with similar results. Error bars show s.e.m of three different fields of treated cells, statistically significant ^*P<0.01 and ^**P<0.001 vs control.
# [6] = tested on: T47D cells; test: TUNEL apoptosis assay, T47D; assay type: cell-based, human; conditions: 5 μM; 6 days; control about 1.5%
# Description: as §1, §2
smiles,measurement,setting,value
"CC1=C(/C=C/C(C)=C/C=C/C(C)=C/C(=O)Nc2ccc(O)cc2)C(C)(C)CCC1 [Compound 4-HPR, 4-Hydroxyphenyl retinamide, reference compound]",IC50,[1],1400 nM
same,Decrease of cyclin D1 protein expression compared with untreated control,[2],> 80%
same,G2/M (%),[3],16.75±4.39%
same,Go/G1 (%),[3],76.94±3.47%
same,S (%),[3],6.32±0.93%
same,Sub-G1 (%),[3],30.25±6.66%
same,IC50,[4],148 nM
same,"Induction of apoptosis (TUNEL), MCF-7",[5],20–25%
same,"Induction of apoptosis (TUNEL), T47D",[6],20–25%

# Reference: publication PMC2360155, “Novel retinoic acid metabolism blocking agents have potent inhibitory activities on human breast cancer cells and tumour growth” (British Journal of Cancer, 2007)
